The experiment in a line: sGC-HEK-cGMP Assay: Human embryonic kidney cells (HEK293), endogenously expressing soluble guanylate cyclase (sGC), were used to evaluate the activity of test compounds. Compounds stimulating the sGC enzyme should cause an increase in the intracellular concentration of cGMP. HEK 293 cells were seeded in Dulbecco's Modification of Eagle's Medium supplemented with fetal bovine serum (10% final) and penicillin (100 U/mL)/streptomycin (100 μg/mL) in a 50 μL volume at a density of 1.5×10^4 cells/well in a poly-D-lysine coated 384 well flat bottom plate. Cells were incubated overnight at 37° C. in a humidified chamber with 5% CO2. Medium was aspirated and cells were washed with 1× Hank's Buffered Saline Salt Solution (50 μL). Cells were then incubated for 15 minutes at 37° C. with 50 μL of a 0.5 mM 3-isobutyl-1-methylxanthine (IBMX) solution. Test article and Diethylenetriamine NONOate (DETA-NONOate) solutions (x μM concentration for test article solution and 10 μM concentration for DETA-NONOate solution; wherein x is one of the following concentrations: 0.029 nM to 30000 nM). were then added to the assay mixture and the resulting mixture incubated at 37° C. for 20 minutes. After the 20 minute incubation, the assay mixture was aspirated and 10% acetic acid containing 150 ng/mL+3-cGMP (internal standard for LCMS) (50 μL) was added to the cells. The plate was incubated at 4° C. for 30 minutes in the acetic acid solution to stop the reaction and lyse the cells. The plates were then centrifuged at 1,000 g for 3 minutes at 4° C. and the supernatant transferred to a clean reaction plate for LCMS analysis.cGMP concentrations were determined from each sample using the LCMS conditions below (Table 5) and calculated standard curve. The standard curve was prepared in 10% acetic acid with 150 ng/mL+3cGMP (isotopically labelled cGMP with a weight 3 units higher than wild type) with the following final concentrations of cGMP in ng/mL: 1, 5, 10, 50, 100, 250, 500, 1000, 2000. The class given is cell-based.

Turning to `O=COC1CNCCN1c1nc(-c2cc(-c3ccon3)n(Cc3ccccc3F)n2)ncc1F` (centres undefined), the EC50 is more than 1000 nM. In the case of `O=COC1c2[nH]cnc2CCN1c1nc(-c2cc(-c3ccon3)n(Cc3ccccc3F)n2)ncc1F` (centres undefined) it was more than 1000 nM; in that of `COc1ccc2c(c1)CCN(c1nc(-c3cc(-c4ccon4)n(Cc4ccccc4F)n3)ncc1F)C2OC=O` (centres undefined), less than 100 nM.

`CC(=O)c1cc(-c2ncc(F)c(N3CCC[C@H](C)[C@@H]3OC=O)n2)nn1Cc1ccccc1F`: the EC50 entry is “in the range around 550 nM”. In the case of `COC(=O)N1CCN(c2nc(-c3cc(-c4ccon4)n(Cc4ccccc4F)n3)ncc2F)C(OC=O)C1` (centres undefined) it was more than 1000 nM. The result for `O=COC1c2ccc(O)cc2CCN1c1nc(-c2cc(-c3ccon3)n(Cc3ccccc3F)n2)ncc1F` (centres undefined) reads more than 1000 nM; that for `C[C@H]1CCCN(c2nc(-c3cc(-c4ccon4)n(Cc4cccc(F)c4F)n3)ncc2F)[C@H]1OC=O`, less than 100 nM; that for `Fc1ccccc1Cn1nc(-c2ncc(F)c(N3CCCC4CC43)n2)cc1-c1ccon1` (centres undefined), “in the range around 550 nM”. In the case of `O=CO[C@H](Cc1ccc(O)cc1)Nc1nc(-c2cc(-c3ccon3)n(Cc3ccccc3F)n2)ncc1F` it was more than 1000 nM.

The term EC50 denotes the concentration giving half of the maximal effect.

The values are drawn from ChEMBL document CHEMBL5726175, “sGC stimulators” (2019).
